Values of other authors, collected in patent US20230233522A1, “COMPOSITIONS AND METHODS FOR TREATING EPILEPSY, SEIZURES AND OTHER CONDITIONS” (TULEX PHARMACEUTICALS INC., priority 2019, published 2023).

## CC1(C)O[C@@H]2[C@@H](CO[C@@]3(COS(N)(=O)=O)OC(C)(C)O[C@@H]23)O1 [Topiramate, 2,3:4,5-Di-O-isopropylidine-β-D-fructopyranose sulfamate]
  solubility in water: about 9.8 mg/ml
